Results: ChEMBL document CHEMBL1201862, “PubChem BioAssay data set” (2004)
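Exposure lasted 48 hours, with cells grown in 96-well plates and compounds tested at five concentrations. GI50 marks 50% less growth.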 The source made the active and inactive calls. Rule as the data show it: active = GI50 up to about 1.1 µM and inactive = higher.

How the values were obtained:
Assay in all cases: NCI-60 cell line screen, 48 h
786-0 = system: 786-0
A498 = system: A498
A549 = system: A549
ACHN = system: ACHN
BT-549 = system: BT-549
CAKI-1 = system: CAKI-1
CCRF-CEM = system: CCRF-CEM
COLO 205 = system: COLO 205
DU-145 = system: DU-145
EKVX = system: EKVX
HCC 2998 = system: HCC 2998
HCT-116 = system: HCT-116
HCT-15 = system: HCT-15
HL-60 = system: HL-60
HOP-62 = system: HOP-62
HT-29 = system: HT-29
Hs-578T = system: Hs-578T
IGROV-1 = system: IGROV-1
K562 = system: K562
KM12 = system: KM12
LOX IMVI = system: LOX IMVI
M14 = system: M14
MCF7 = system: MCF7
MDA-MB-231 = system: MDA-MB-231
MDA-MB-435 = system: MDA-MB-435
MDA-N = system: MDA-N
MOLT-4 = system: MOLT-4
Malme-3M = system: Malme-3M
NCI-H226 = system: NCI-H226
NCI-H23 = system: NCI-H23
NCI-H460 = system: NCI-H460
NCI-H522 = system: NCI-H522
NCI/ADR-RES = system: NCI/ADR-RES
OVCAR-3 = system: OVCAR-3
OVCAR-4 = system: OVCAR-4
OVCAR-5 = system: OVCAR-5
OVCAR-8 = system: OVCAR-8
PC-3 = system: PC-3
RPMI-8226 = system: RPMI-8226
RXF 393 = system: RXF 393
SF-268 = system: SF-268
SF-295 = system: SF-295
SF-539 = system: SF-539
SK-MEL-28 = system: SK-MEL-28
SK-MEL-2 = system: SK-MEL-2
SK-MEL-5 = system: SK-MEL-5
SK-OV-3 = system: SK-OV-3
SN12C = system: SN12C
SNB-19 = system: SNB-19
SNB-75 = system: SNB-75
SR = system: SR
SW-620 = system: SW-620
T47D = system: T47D
TK-10 = system: TK-10
U-251 = system: U-251
UACC-257 = system: UACC-257
UACC-62 = system: UACC-62
UO-31 = system: UO-31
HOP-92 = system: HOP-92

CCC1=NC(C(F)(F)F)(C(F)(F)F)N=C(/N=C(/N)N(C)C(C(C)C)P(=O)(OC(C)C)OC(C)C)O1 (centres undefined)
GI50 (786-0): > 100 µM (inactive) | GI50 (A498): > 100 µM (inactive) | GI50 (A549): > 100 µM (inactive) | GI50 (ACHN): > 100 µM (inactive) | GI50 (BT-549): > 100 µM (inactive) | GI50 (CAKI-1): > 100 µM (inactive) | GI50 (CCRF-CEM): > 100 µM (inactive) | GI50 (COLO 205): > 100 µM (inactive) | GI50 (DU-145): > 100 µM (inactive) | GI50 (EKVX): > 100 µM (inactive) | GI50 (HCC 2998): > 100 µM (inactive) | GI50 (HCT-116): > 100 µM (inactive) | GI50 (HCT-15): > 100 µM | GI50 (HL-60): > 100 µM (inactive) | GI50 (HOP-62): > 100 µM (inactive) | GI50 (HT-29): > 100 µM (inactive) | GI50 (Hs-578T): > 100 µM (inactive) | GI50 (IGROV-1): > 100 µM (inactive) | GI50 (K562): > 100 µM (inactive) | GI50 (KM12): > 100 µM (inactive) | GI50 (LOX IMVI): > 100 µM (inactive) | GI50 (M14): > 100 µM (inactive) | GI50 (MCF7): > 100 µM (inactive) | GI50 (MDA-MB-231): > 100 µM (inactive) | GI50 (MDA-MB-435): > 100 µM (inactive) | GI50 (MDA-N): > 100 µM (inactive) | GI50 (MOLT-4): > 100 µM (inactive) | GI50 (Malme-3M): > 100 µM (inactive) | GI50 (NCI-H226): > 100 µM (inactive) | GI50 (NCI-H23): > 100 µM (inactive) | GI50 (NCI-H460): > 100 µM (inactive) | GI50 (NCI-H522): > 100 µM (inactive) | GI50 (NCI/ADR-RES): > 100 µM (inactive) | GI50 (OVCAR-3): > 100 µM (inactive) | GI50 (OVCAR-4): > 100 µM (inactive) | GI50 (OVCAR-5): > 100 µM (inactive) | GI50 (OVCAR-8): > 100 µM (inactive) | GI50 (PC-3): > 100 µM (inactive) | GI50 (RPMI-8226): > 100 µM (inactive) | GI50 (RXF 393): > 100 µM (inactive) | GI50 (SF-268): > 100 µM (inactive) | GI50 (SF-295): > 100 µM (inactive) | GI50 (SF-539): > 100 µM (inactive) | GI50 (SK-MEL-28): > 100 µM (inactive) | GI50 (SK-MEL-2): > 100 µM (inactive) | GI50 (SK-MEL-5): > 100 µM (inactive) | GI50 (SK-OV-3): > 100 µM (inactive) | GI50 (SN12C): > 100 µM (inactive) | GI50 (SNB-19): > 100 µM (inactive) | GI50 (SNB-75): > 100 µM (inactive) | GI50 (SR): > 100 µM (inactive) | GI50 (SW-620): > 100 µM (inactive) | GI50 (T47D): > 100 µM (inactive) | GI50 (TK-10): > 100 µM (inactive) | GI50 (U-251): > 100 µM (inactive) | GI50 (UACC-257): > 100 µM (inactive) | GI50 (UACC-62): > 100 µM (inactive) | GI50 (UO-31): > 100 µM (inactive)

O=S(=O)(c1ccccc1)N1CCN(S(=O)(=O)c2ccccc2)c2ccccc21
GI50 (786-0): > 100 µM (inactive) | GI50 (A498): > 100 µM (inactive) | GI50 (A549): > 100 µM (inactive) | GI50 (ACHN): > 100 µM (inactive) | GI50 (BT-549): > 100 µM (inactive) | GI50 (CAKI-1): > 100 µM (inactive) | GI50 (COLO 205): > 100 µM (inactive) | GI50 (DU-145): > 100 µM (inactive) | GI50 (EKVX): 31 µM (inactive) | GI50 (HCC 2998): > 100 µM (inactive) | GI50 (HCT-116): 45.2 µM (inactive) | GI50 (HCT-15): 92.7 µM | GI50 (HOP-62): > 100 µM (inactive) | GI50 (HOP-92): > 100 µM (inactive) | GI50 (HT-29): 93.5 µM (inactive) | GI50 (Hs-578T): > 100 µM (inactive) | GI50 (IGROV-1): > 100 µM (inactive) | GI50 (K562): 96.4 µM (inactive) | GI50 (KM12): > 100 µM (inactive) | GI50 (LOX IMVI): > 100 µM (inactive) | GI50 (M14): 96.6 µM (inactive) | GI50 (MCF7): 91.8 µM (inactive) | GI50 (MDA-MB-231): > 100 µM (inactive) | GI50 (MDA-MB-435): > 100 µM (inactive) | GI50 (MDA-N): 89.5 µM (inactive) | GI50 (Malme-3M): > 100 µM (inactive) | GI50 (NCI-H226): > 100 µM (inactive) | GI50 (NCI-H23): 52.1 µM (inactive) | GI50 (NCI-H460): > 100 µM (inactive) | GI50 (NCI-H522): 42.5 µM (inactive) | GI50 (NCI/ADR-RES): 95.7 µM (inactive) | GI50 (OVCAR-3): > 100 µM (inactive) | GI50 (OVCAR-4): > 100 µM (inactive) | GI50 (OVCAR-5): > 100 µM (inactive) | GI50 (OVCAR-8): > 100 µM (inactive) | GI50 (PC-3): > 100 µM (inactive) | GI50 (RPMI-8226): > 100 µM (inactive) | GI50 (RXF 393): > 100 µM (inactive) | GI50 (SF-268): > 100 µM (inactive) | GI50 (SF-295): 81.8 µM (inactive) | GI50 (SF-539): > 100 µM (inactive) | GI50 (SK-MEL-28): > 100 µM (inactive) | GI50 (SK-MEL-2): > 100 µM (inactive) | GI50 (SK-MEL-5): 73.3 µM (inactive) | GI50 (SK-OV-3): > 100 µM (inactive) | GI50 (SN12C): > 100 µM (inactive) | GI50 (SNB-19): > 100 µM (inactive) | GI50 (SNB-75): > 100 µM (inactive) | GI50 (SR): > 100 µM (inactive) | GI50 (SW-620): > 100 µM (inactive) | GI50 (T47D): > 100 µM (inactive) | GI50 (TK-10): > 100 µM (inactive) | GI50 (U-251): > 100 µM (inactive) | GI50 (UACC-257): 75.5 µM (inactive) | GI50 (UACC-62): 64.7 µM (inactive) | GI50 (UO-31): > 100 µM (inactive)
